Where “and” joins values, the source holds several entries; their conditions need not be identical. Equal entries are not always repeated.
Columns and labels:
[1] = test system: HGF production in MRC-5 cells; assay: Enhancing activity for HGF production, MRC-5 cells, HGF ELISA of medium; format: cell-based, Human; conditions: 24 hours, control = 100%
Procedure: MRC-5 cells (CCL 171: manufactured by DAINIPPON PHARMACEUTICAL CO., LTD., code. 02-021) were suspended in a DME medium containing 10% fetal bovine serum so as to have a concentration of 5×10^4 cells/cm^2. The suspension was put in a 48-well cell culture plate, and the cells were cultured at 37° C. in the presence of 5% CO2 gas for 24 hours. After culturing, the medium was exchanged. Thereafter, the sample was added, and the cells were cultured for another 24 hours. Subsequently, the medium was collected, and the amount of HGF in the medium was assayed using Quantikine Human Hepatocyte Growth Factor (HGF) ELISA Kit (manufactured by Funakoshi, code. RS-0641-00). […] Here, the addition of the sample was carried out by previously preparing aqueous solutions of the samples at various concentrations, and adding a given amount of each solution to the medium so as to have the above-mentioned final concentration. As the control, that with addition of a given amount of distilled water alone (final concentration of the sample: 0 μM) was used. The amount of HGF production was expressed as the relative value (%) when the HGF concentration in the cell culture medium of the control was defined as 100%. All experiments were carried out twice, and an average value was taken.

[2] = test system: NGF production in L-M cells; assay: Enhancing activity for NGF production, L-M cells, NGF enzyme immunoassay of medium; format: cell-based, murine; conditions: control = 100%
Procedure: L-M cells (ATCC CCL-1.2) from murine fibroblasts were suspended in an M199 medium (manufactured by ICN) containing 0.5% bactopeptone (manufactured by Gibco BRL) so as to have a concentration of 1.5×10^5 cells/ml. The suspension was put in a 96-well plate in an amount of 0.1 ml each well, and the cells were aseptically cultured. After culturing the cells for 3 days, the medium was removed therefrom, and exchanged with an M199 medium containing 0.5% bovine serum albumin (manufactured by Sigma). […] After the termination of the culture, the NGF concentration in the culture medium was determined by an enzyme immunoassay method (NGF Emax Immuno Assay System, manufactured by Promega). Incidentally, in the case where the final concentration of the iron-treated chlorogenic acid was 0 μM, a given amount of an aqueous solution obtained by an iron treatment in the absence of chlorogenic acid was added to the medium. In addition, for the purpose of comparison, the activity of the chlorogenic acid without the iron treatment was assayed in the same manner. As described above, that with addition of a given amount of distilled water alone (final concentration of chlorogenic acid without the iron treatment: 0 μM) was used as the control. The amount of NGF production was expressed as the relative value (%) when the NGF concentration in the cell culture medium of the control was defined as 100%. The experiment was carried out twice, and an average value was taken. The enhancing activity for NGF production of chlorogenic acid was enhanced by the iron treatment.

[3] = test system: mouse; format: in vivo; conditions: orally, single dose of 1 g/1 kg

## 3,5-dicaffeoylquinic acid
[1]; 1 μM
  Amount of HGF Production: 142%
[1]; 10 μM
  Amount of HGF Production: 206%
[1]; 100 μM
  Amount of HGF Production: 290%

## CCOC(=O)/C=C/c1ccc(O)c(O)c1 [Caffeic Acid Ethyl Ester, caffeic acid ethyl ester]
[2]; 0.0625 mg/ml
  Amount of NGF Production: 1279.1%

## COC(=O)/C=C/c1ccc(O)c(O)c1 [Caffeic Acid Methyl Ester, caffeic acid methyl ester]
[2]; 0.0625 mg/ml
  Amount of NGF Production: 824.4%
[2]; 0.125 mg/ml
  Amount of NGF Production: 889.6%

## O=C(O)/C=C/c1ccc(O)c(O)c1 [caffeic acid]
[1]; 1 μM
  Amount of HGF Production: 85%
[1]; 10 μM
  Amount of HGF Production: 117%
[1]; 100 μM
  Amount of HGF Production: 196%
[1]; 1000 μM
  Amount of HGF Production: 92%
[2]; 62.5 μM, 20 hours
  Amount of NGF Production: 97.8%
[2]; 125 μM, 20 hours
  Amount of NGF Production: 199.5%
[2]; 250 μM, 20 hours
  Amount of NGF Production: 221.2% and 227.8%
[2]; 500 μM, 20 hours
  Amount of NGF Production: 287.9%
[2]; 1000 μM, 20 hours
  Amount of NGF Production: 269.3%
[3]
  Death after single oral administration: no cases of death

## O=C(/C=C/c1ccc(O)c(O)c1)O[C@@H]1C[C@](O)(C(=O)O)C[C@@H](O)[C@H]1O [chlorogenic acid]
[1]; 1 μM
  Amount of HGF Production: 105%
[1]; 10 μM
  Amount of HGF Production: 122%
[1]; 50 μM (as chlorogenic acid)
  Amount of HGF Production: 148%
[1]; 100 μM
  Amount of HGF Production: 302%
[1]; 500 μM
  Amount of HGF Production: 479%
[1]; 1000 μM
  Amount of HGF Production: 624%
[2]; 125 μM, 20 hours
  Amount of NGF Production: 124.6%
[2]; 250 μM, 20 hours
  Amount of NGF Production: 308.5% and 192.8%
[2]; 500 μM, 20 hours
  Amount of NGF Production: 351.1% and 382.2% and 328.5% and 231.9%
[2]; 1000 μM, 20 hours
  Amount of NGF Production: 256.2%
[3]
  Death after single oral administration: no cases of death

## O=C(/C=C/c1ccc(O)c(O)c1)O[C@H]1[C@H](O)C[C@](O)(C(=O)O)C[C@H]1O [cryptochlorogenic acid, 4-caffeoyl-quinic acid]
[3]
  Death after single oral administration: no cases of death

## O=C(O[C@@H]1Cc2c(O)cc(O)cc2O[C@@H]1c1cc(O)c(O)c(O)c1)c1cc(O)c(O)c(O)c1 [epigallocatechin gallate]
[1]; 1 μM
  Amount of HGF Production: 175%
[1]; 10 μM
  Amount of HGF Production: 160%
[3]
  Death after single oral administration: no cases of death

## O=C(O)c1cc(O)c(O)c(O)c1 [gallic acid]
[1]; 1 μM
  Amount of HGF Production: 112%
[1]; 10 μM
  Amount of HGF Production: 217%
[1]; 100 μM
  Amount of HGF Production: 576%
[3]
  Death after single oral administration: no cases of death

## O=c1cc(-c2ccc(O)c(O)c2)oc2cc(O)c([C@@H]3O[C@H](CO)[C@@H](O)[C@H](O)[C@H]3O)c(O)c12 [isoorientin]
[3]
  Death after single oral administration: no cases of death

## COc1cc(O)c(CC=C(C)C)c2c1C(=O)CC(c1ccc(O)cc1)O2 (centres unmarked) [isoxanthohumol]
[2]; 50 μM, 20 hours
  Amount of NGF Production: 110.7%
[2]; 100 μM, 20 hours
  Amount of NGF Production: 121.4%
[2]; 200 μM, 20 hours
  Amount of NGF Production: 198.0%

## O=c1c(O)c(-c2ccc(O)cc2)oc2cc(O)cc(O)c12 [kaemferol]
[3]
  Death after single oral administration: no cases of death

## O=c1c(O)c(-c2cc(O)c(O)c(O)c2)oc2cc(O)cc(O)c12 [myricetin]
[1]; 1 μM
  Amount of HGF Production: 187%
[1]; 10 μM
  Amount of HGF Production: 543%
[1]; 100 μM
  Amount of HGF Production: 454%
[3]
  Death after single oral administration: no cases of death

## O=C(/C=C/c1ccc(O)c(O)c1)O[C@@H]1C[C@@](O)(C(=O)O)C[C@@H](O)[C@@H]1O [neochlorogenic acid, 5-caffeoyl-quinic acid]
[3]
  Death after single oral administration: no cases of death

## O=c1c(O)c(-c2ccc(O)c(O)c2)oc2cc(O)cc(O)c12 [quercetin]
[1]; 10 μM
  Amount of HGF Production: 139%
[1]; 100 μM
  Amount of HGF Production: 304%
[3]
  Death after single oral administration: no cases of death

## COc1cc2c(c(O)c1C(=O)/C=C/c1ccc(O)cc1)CC(O)C(C)(C)O2 (centres unmarked) [xanthohumol B]
[3]
  Death after single oral administration: no cases of death

## C=C(C)C(O)Cc1c(O)cc(OC)c(C(=O)/C=C/c2ccc(O)cc2)c1O (centres unmarked) [xanthohumol D]
[3]
  Death after single oral administration: no cases of death

Reference: US20030203857A1, “Remedies” (priority 2000, published 2003)
